Data published in PubChem BioAssay AID1845207 (Molecular Pharmacology Branch, DTP, NCI, 2023).
Where “and” joins values, the source holds several entries; their conditions need not be identical. Equal values may be shown once.

Tested on: NCI-H1876 tumor spheroid viability
Test: Anticancer human tumor NCI-H1876 cell line growth inhibition;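 further: spheroids exposed to compounds for seven days before the viability read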;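 on viability, T/C: percent of DMSO vehicle control viability so 100% = vehicle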
Conditions: spheroids with HUVEC and MSC; for viability, T/C: stronger effect = lower value
How it was run: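 Complex tumor spheroids combined malignant cells with endothelial cells and mesenchymal stem cells. DNA-damaging drugs and DNA repair inhibitors were tested alone and in combination, at half-log dilutions down from clinical Cmax (top 10 microM if Cmax unknown), 0.25% DMSO final.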

[1] = curve of first compound, second compound 0.003 µM
[2] = curve of first compound, second compound 0.00949 µM
[3] = curve of first compound, second compound 0.03 µM
[4] = curve of first compound, second compound 0.0949 µM
[5] = curve of first compound, second compound 0.3 µM
[6] = second compound 0.003 µM, first compound 0.00949 µM
[7] = second compound 0.003 µM, first compound 0.03 µM
[8] = second compound 0.003 µM, first compound 0.0949 µM
[9] = second compound 0.003 µM, first compound 0.3 µM
[10] = second compound 0.003 µM, first compound 0.949 µM
[11] = second compound 0.003 µM, first compound 3 µM
[12] = second compound 0.00949 µM, first compound 0.00949 µM
[13] = second compound 0.00949 µM, first compound 0.03 µM
[14] = second compound 0.00949 µM, first compound 0.0949 µM
[15] = second compound 0.00949 µM, first compound 0.3 µM
[16] = second compound 0.00949 µM, first compound 0.949 µM
[17] = second compound 0.00949 µM, first compound 3 µM
[18] = second compound 0.03 µM, first compound 0.00949 µM
[19] = second compound 0.03 µM, first compound 0.03 µM
[20] = second compound 0.03 µM, first compound 0.0949 µM
[21] = second compound 0.03 µM, first compound 0.3 µM
[22] = second compound 0.03 µM, first compound 0.949 µM
[23] = second compound 0.03 µM, first compound 3 µM
[24] = second compound 0.0949 µM, first compound 0.00949 µM
[25] = second compound 0.0949 µM, first compound 0.03 µM
[26] = second compound 0.0949 µM, first compound 0.0949 µM
[27] = second compound 0.0949 µM, first compound 0.3 µM
[28] = second compound 0.0949 µM, first compound 0.949 µM
[29] = second compound 0.0949 µM, first compound 3 µM
[30] = second compound 0.3 µM, first compound 0.00949 µM
[31] = second compound 0.3 µM, first compound 0.03 µM
[32] = second compound 0.3 µM, first compound 0.0949 µM
[33] = second compound 0.3 µM, first compound 0.3 µM
[34] = second compound 0.3 µM, first compound 0.949 µM
[35] = second compound 0.3 µM, first compound 3 µM

Compound: Cn1ncnc1[C@H]1c2n[nH]c(=O)c3cc(F)cc(c23)N[C@@H]1c1ccc(F)cc1 + CC[C@@]1(O)C(=O)OCc2c1cc1n(c2=O)Cc2cc3c(CN(C)C)c(O)ccc3nc2-1
- IC50 [1]: 57.9 nM
- IC50 [2]: < 9.49 nM
- IC50 [3]: < 9.49 nM
- IC50 [4]: < 9.49 nM
- IC50 [5]: < 9.49 nM
- viability, T/C [6]: 71%
- viability, T/C [7]: 60.4%
- viability, T/C [8]: 36%
- viability, T/C [9]: 39.9%
- viability, T/C [10]: 6.31%
- viability, T/C [11]: 0.18%
- viability, T/C [12]: 44.6%
- viability, T/C [13]: 37.4%
- viability, T/C [14]: 29%
- viability, T/C [15]: 19.4%
- viability, T/C [16]: 6.41%
- viability, T/C [17]: 0.15%
- viability, T/C [18]: 14.9%
- viability, T/C [19]: 28.7%
- viability, T/C [20]: 18.9%
- viability, T/C [21]: 18%
- viability, T/C [22]: 5.53%
- viability, T/C [23]: 0.13%
- viability, T/C [24]: 9.15%
- viability, T/C [25]: 28.8%
- viability, T/C [26]: 10.8%
- viability, T/C [27]: 10.3%
- viability, T/C [28]: 3.73%
- viability, T/C [29]: 0.14%
- viability, T/C [30]: 3.72%
- viability, T/C [31]: 3.65%
- viability, T/C [32]: 3.75%
- viability, T/C [33]: 3.83%
- viability, T/C [34]: 1.56%
- viability, T/C [35]: 13.9%

Compound: CNCc1ccc(-c2cc(-c3nc(-c4ccc(S(=O)(=O)C(C)C)cc4)cnc3N)on2)cc1 + CC[C@@]1(O)C(=O)OCc2c1cc1n(c2=O)Cc2cc3c(CN(C)C)c(O)ccc3nc2-1
- IC50 [1]: 56.8 nM
- IC50 [2]: < 9.49 nM
- IC50 [3]: < 9.49 nM
- IC50 [4]: < 9.49 nM
- IC50 [5]: < 9.49 nM
- viability, T/C [6]: 68%
- viability, T/C [7]: 57.6%
- viability, T/C [8]: 34%
- viability, T/C [9]: 46.9%
- viability, T/C [10]: 5.62%
- viability, T/C [11]: 0.13%
- viability, T/C [12]: 46.3%
- viability, T/C [13]: 34.2%
- viability, T/C [14]: 26.3%
- viability, T/C [15]: 18%
- viability, T/C [16]: 5.92%
- viability, T/C [17]: 0.13%
- viability, T/C [18]: 13.6%
- viability, T/C [19]: 14.5%
- viability, T/C [20]: 16.9%
- viability, T/C [21]: 19%
- viability, T/C [22]: 5.1%
- viability, T/C [23]: 0.13%
- viability, T/C [24]: 8.73%
- viability, T/C [25]: 8.03%
- viability, T/C [26]: 10.2%
- viability, T/C [27]: 8.96%
- viability, T/C [28]: 3.31%
- viability, T/C [29]: 0.13%
- viability, T/C [30]: 3.51%
- viability, T/C [31]: 3.44%
- viability, T/C [32]: 3.53%
- viability, T/C [33]: 3.41%
- viability, T/C [34]: 1.38%
- viability, T/C [35]: 0.19%

Compound: COc1cc(C)[nH]c(=O)c1CN1CCc2c(Cl)cc(C(OC)C3COC3)c(Cl)c2C1=O (configuration not stated)
- viability, T/C (compound 0.0316 µM): 106% and 117% and 105%
- viability, T/C (compound 0.1 µM): 109% and 112% and 103%
- viability, T/C (compound 0.316 µM): 101% and 110% and 98.1%
- viability, T/C (compound 1 µM): 102% and 103% and 92.3%
- viability, T/C (compound 3.16 µM): 98.3% and 96.9% and 95.2%
- viability, T/C (compound 10 µM): 94.2% and 77.4% and 86.5%
- IC50 (curve of compound): > 10000 nM

Compound: COc1ccc([C@@H](O)c2cc(-c3ncnc4cc(N5CCOCC5)ccc34)c(F)cc2Cl)nn1 + Cn1nnc2c(C(N)=O)ncn2c1=O
- IC50 (curve of first compound, second compound 1 µM): 1080 nM
- IC50 (curve of first compound, second compound 3.16 µM): 1210 nM
- IC50 (curve of first compound, second compound 10 µM): 1000 nM
- IC50 (curve of first compound, second compound 31.6 µM): 970 nM
- IC50 (curve of first compound, second compound 100 µM): 335 nM
- viability, T/C (second compound 1 µM, first compound 0.0316 µM): 93.8%
- viability, T/C (second compound 1 µM, first compound 0.1 µM): 86.7%
- viability, T/C (second compound 1 µM, first compound 0.316 µM): 74.3%
- viability, T/C (second compound 1 µM, first compound 1 µM): 49%
- viability, T/C (second compound 1 µM, first compound 3.16 µM): 29%
- viability, T/C (second compound 1 µM, first compound 10 µM): 4.64%
- viability, T/C (second compound 3.16 µM, first compound 0.0316 µM): 97.5%
- viability, T/C (second compound 3.16 µM, first compound 0.1 µM): 85.2%
- viability, T/C (second compound 3.16 µM, first compound 0.316 µM): 80%
- viability, T/C (second compound 3.16 µM, first compound 1 µM): 53.7%
- viability, T/C (second compound 3.16 µM, first compound 3.16 µM): 26.5%
- viability, T/C (second compound 3.16 µM, first compound 10 µM): 4.48%
- viability, T/C (second compound 10 µM, first compound 0.0316 µM): 94.4%
- viability, T/C (second compound 10 µM, first compound 0.1 µM): 86.3%
- viability, T/C (second compound 10 µM, first compound 0.316 µM): 72%
- viability, T/C (second compound 10 µM, first compound 1 µM): 51%
- viability, T/C (second compound 10 µM, first compound 3.16 µM): 23.5%
- viability, T/C (second compound 10 µM, first compound 10 µM): 3.37%
- viability, T/C (second compound 31.6 µM, first compound 0.0316 µM): 90.8%
- viability, T/C (second compound 31.6 µM, first compound 0.1 µM): 82.2%
- viability, T/C (second compound 31.6 µM, first compound 0.316 µM): 73.1%
- viability, T/C (second compound 31.6 µM, first compound 1 µM): 47.7%
- viability, T/C (second compound 31.6 µM, first compound 3.16 µM): 25.1%
- viability, T/C (second compound 31.6 µM, first compound 10 µM): 4.04%
- viability, T/C (second compound 100 µM, first compound 0.0316 µM): 48.4%
- viability, T/C (second compound 100 µM, first compound 0.1 µM): 65.8%
- viability, T/C (second compound 100 µM, first compound 0.316 µM): 48.5%
- viability, T/C (second compound 100 µM, first compound 1 µM): 36.1%
- viability, T/C (second compound 100 µM, first compound 3.16 µM): 17.8%
- viability, T/C (second compound 100 µM, first compound 10 µM): 2.3%
